The source of these data is US20240174684A1, “INHIBITORS OF cGAS ACTIVITY AS THERAPEUTIC AGENTS” (BELLBROOK LABS, LLC, priority 2021, published 2024).

Each structure is given as a SMILES string. In brackets after ≈: the same amount, converted by molar mass. Where two headings read alike, the source gives them in different places.

For one series, the system named is MDR1 (P-glycoprotein). Put plainly: MDCK-MDR1 permeability A→B. The class given is in vitro ADME, Canine. To be noted: dog; MDCK cells expressing human MDR1, A→B; read-out: MDCK-MDR Permeability A→B. Put shortly:
(§1)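 Permeability measured apical-to-basolateral in MDCK cells expressing human MDR1, reported as binned ranges in cm/s×10^−6. Metabolic stability determined as half-life in mouse and human hepatocytes, reported as binned ranges in minutes.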

The nature of series [1]: Metabolic stability in mouse hepatocytes. The class given is in vitro ADME. Particulars: read-out: Mouse MS Stability t1/2. The protocol: (§2) ADME studies: Compound A and the compounds of the disclosure were tested for aqueous solubility (KSOL), metabolic stability (human and mouse […]) and permeability (Caco-2 and/or MDR1-MDCK cells) to provide an initial indication of oral bioavailability.
(§3) The favorable physicochemical properties are reflected in promising results in in vitro ADME tests. […] Metabolic stability, which was routinely measured with mouse and human hepatocytes, is outstanding, with t, greater than 2 hours for all of the compounds of the disclosure in which it has been measured. Cell permeability was measured using MDCK cells expressing human MDR1 (P-glycoprotein) to assess passive permeability as well as active transport out of the cell. […] Numerous compounds in Table 1 meet these permeability criteria, which is consistent with their design for TPSA <140 Å^2 and increased lipophilicity.
(§4) The MDCK-MDR1 permeability A ->B is shown in Table 2 below, where A represents 5-10 cm/s×10^−6; B represents 1-5 cm/s×10^−6; and C represents <1 cm/ss×10^−6. The metabolic stability half time, in both mouse and human hepatocytes, is also shown in Table 2 below, where A′ represents 100-200 minutes; B′ represents 200-300 minutes; and C′ represents >300 minutes.

Series [2] in a line: Kinetic aqueous solubility (KSOL) in PBS, pH 7.4. The class given is physicochemical. To be noted: aqueous buffer, kinetic from dmso stock. The method, then: as §2, §3
The target in series [3] is T1, cGAS (Homo sapiens, UniProt Q8N884). Put plainly: Transcreener cGAS enzymatic assay (FP). It counts as biochemical. Put shortly:
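Human cGAS (30 nm) inhibition, 60 min reactions, FP read-out, standard conditions 100 μM ATP and GTP plus 62.5 nM bp ISD. Also run at 1 mM ATP and GTP (physiological), with 200 μM MnCl2, and with mouse cGAS under standard conditions; IC50 reported.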

Another series concerns the target mouse cGAS (Mus musculus, UniProt Q8C6L5). Put plainly: Transcreener cGAS enzymatic assay with mouse cGAS. The class given is biochemical. To be noted: standard conditions, read-out: IC50 with mcGAS. The method, then:
Structural, biochemical and biophysical analysis and selectivity profiling: Potency and MOA studies, including Mn^2+ sensitivity, were performed using the Transcreener cGAS enzymatic assay, which is manufactured at BellBrook Labs (Fitchburg, Wisconsin, USA). This homogenous cGAS enzymatic assay was developed with fluorescence polarization (FP) and time-resolved Forster resonance energy transfer (TR-FRET) readouts, as described in International Patent Publication WO 2020/142729, incorporated by reference herein in its entirety. Plates are read on a PHERAstar FSX multimode reader (BMG). The compounds of the disclosure were tested for inhibition of cGAS ([…]) using this cGAS enzymatic assay under standard conditions (100 μM ATP and GTP, 62.5 nM bp ISD, 60 minute reactions), high ATP and GTP (1 mM) to mimic physiological conditions, in the presence of 200 μM MnCl2, and with mouse cGAS under standard conditions.
Potency with mcGAS is important for vivo efficacy studies and represents a challenge for lead development because mcGAS shares only 57% amino acid identity with human enzyme and there are significant functional differences.

For series [4], the system named is IFNβ production in THP-1 cells. Put plainly: IFNβ ELISA in THP-1 cells. The class given is cell-based, human. Particulars: Homo sapiens; THP-1 cells. Put shortly: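 THP-1 cells stimulated with dsDNA or cGAMP (STING activation bypassing cGAS) in the presence of compound; IFNβ secreted into medium quantified by ELISA. IC50 values reported in potency bins.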
Series [5] has as its target T1, cGAS. In words: Cellular thermal shift assay (CETSA) in THP-1 cells. It counts as cell-based. To be noted: heat treatment 51.5 °C. The protocol: Panel A is an image of a western blot of the stabilization measure; panel B is a bar graph of the stabilization measure. Heat treatment was conducted at 51.5 ° C.
(§5) CETSA was also used to confirm that the compounds are binding to cGAS in cells; THP-1 cells are used for this analysis. Compounds were tested in dose response mode by incubating with cells for 1.5 hours at 37° C., followed by pelleting and re-suspending in PBS, heating to 51.5° C. for 3 min and cooling to room temp. Cells were then lysed, debris, including denatured cGAS, was pelleted and the supernatant was analyzed for soluble cGAS by Western Blot using anti-cGAS primary Ab (Cell Signaling). Band intensity was analyzed using Image J software. Stimulation with cGAMP directly activates STING, circumventing cGAS; this was used to determine if compounds had effects on downstream components of cGAS/STING signaling. The IFN-6 ELISA was used as the primary measure of cellular potency and selectivity (Table 3) and used the reporter gene assays for assessing off-target activity with other pattern recognition receptors.

Another series deals with RIG-1 signaling. Put plainly: Reporter gene assay IRF30Luc (RIG-1). The class given is cell-based. To be noted: concentrations as high as 100 μM. The method, then:
as §5
(§6) The reporter gene assays were used to assess off-target activity with IRF30Luc (RIG-1) or NFKB (TLR4); CellTiter Glo (ATP levels) and Presto Blue (reducing equivalents) were used to assess cytotoxicity; all assays were performed in dose response mode. […] The inventors recently began using human PBMCs to assess cellular potency in a more physiologically relevant context.
For orientation: In a reporter assay the amount or activity of a reporter protein is the signal.

The subject of a further series is TLR4 pathway. In words: Reporter gene assay NFKB (TLR4). The class given is cell-based. To be noted: concentrations as high as 100 μM. The protocol:
as §5, §6

Series [6] in a line: Cytotoxicity, CellTiter Glo (ATP levels) and Presto Blue (reducing equivalents). It counts as cell-based. To be noted: concentrations as high as 100 μM. The protocol: as §6
Background: Cellular ATP, detected with luciferase, serves as a proxy for viable cell number.

Series [7] concerns isolated Luc reporter enzyme. In words: Isolated Luc reporter enzyme inhibition. It counts as biochemical. Particulars: at 80 μM.
Series [8] concerns the target isolated SEAP reporter enzyme (Homo sapiens, UniProt P05187). In words: Isolated SEAP reporter enzyme inhibition. It counts as biochemical.
The subject of series [9] is MDCK cells expressing human MDR1 (P-glycoprotein). Put plainly: MDCK-MDR1 permeability A→B. It counts as in vitro ADME, Canine. The essentials:
as §1

A short description of series [10]: Metabolic stability in mouse liver microsomes. The class given is in vitro ADME. To be noted: read-out: Mouse MS Stability t1/2. The method, then:
as §2, §4
In general terms: Liver microsomes are vesicles of endoplasmic reticulum, rich in cytochrome P450 enzymes.

Series [11] is described as follows: Metabolic stability in human liver microsomes. The class given is in vitro ADME. Particulars: read-out: Human MS Stability t1/2. The method, then:
as §2, §4

T1 sequence (Q8N884 whole entry): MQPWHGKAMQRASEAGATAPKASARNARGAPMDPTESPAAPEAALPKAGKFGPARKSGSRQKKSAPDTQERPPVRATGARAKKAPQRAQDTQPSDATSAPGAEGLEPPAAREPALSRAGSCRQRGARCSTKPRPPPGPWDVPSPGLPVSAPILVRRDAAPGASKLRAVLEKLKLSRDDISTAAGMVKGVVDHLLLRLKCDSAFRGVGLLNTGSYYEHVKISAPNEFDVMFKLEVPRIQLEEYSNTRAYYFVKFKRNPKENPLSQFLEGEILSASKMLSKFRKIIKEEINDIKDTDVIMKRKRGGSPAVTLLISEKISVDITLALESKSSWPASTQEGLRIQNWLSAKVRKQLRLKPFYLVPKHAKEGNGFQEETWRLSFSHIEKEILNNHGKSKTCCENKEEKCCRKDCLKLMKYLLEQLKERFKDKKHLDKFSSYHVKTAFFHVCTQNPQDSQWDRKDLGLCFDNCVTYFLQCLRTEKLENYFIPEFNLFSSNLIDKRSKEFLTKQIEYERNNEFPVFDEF
Chain of isolated SEAP reporter enzyme (P05187 23-511 limits assumed): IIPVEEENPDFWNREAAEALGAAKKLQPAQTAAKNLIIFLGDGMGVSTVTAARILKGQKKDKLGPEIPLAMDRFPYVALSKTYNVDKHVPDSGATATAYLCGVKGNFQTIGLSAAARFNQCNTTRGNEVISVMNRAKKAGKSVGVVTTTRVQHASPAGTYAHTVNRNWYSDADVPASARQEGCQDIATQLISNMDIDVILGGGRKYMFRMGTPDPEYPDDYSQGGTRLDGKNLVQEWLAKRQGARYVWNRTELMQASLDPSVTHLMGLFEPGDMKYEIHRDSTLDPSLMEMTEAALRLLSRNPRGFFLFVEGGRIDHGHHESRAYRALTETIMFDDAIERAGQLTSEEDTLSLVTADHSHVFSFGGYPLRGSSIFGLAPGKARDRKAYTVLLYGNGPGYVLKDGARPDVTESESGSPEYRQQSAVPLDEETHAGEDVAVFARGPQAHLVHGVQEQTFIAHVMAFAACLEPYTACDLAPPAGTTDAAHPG
Chain of mouse cGAS (Q8C6L5 whole entry): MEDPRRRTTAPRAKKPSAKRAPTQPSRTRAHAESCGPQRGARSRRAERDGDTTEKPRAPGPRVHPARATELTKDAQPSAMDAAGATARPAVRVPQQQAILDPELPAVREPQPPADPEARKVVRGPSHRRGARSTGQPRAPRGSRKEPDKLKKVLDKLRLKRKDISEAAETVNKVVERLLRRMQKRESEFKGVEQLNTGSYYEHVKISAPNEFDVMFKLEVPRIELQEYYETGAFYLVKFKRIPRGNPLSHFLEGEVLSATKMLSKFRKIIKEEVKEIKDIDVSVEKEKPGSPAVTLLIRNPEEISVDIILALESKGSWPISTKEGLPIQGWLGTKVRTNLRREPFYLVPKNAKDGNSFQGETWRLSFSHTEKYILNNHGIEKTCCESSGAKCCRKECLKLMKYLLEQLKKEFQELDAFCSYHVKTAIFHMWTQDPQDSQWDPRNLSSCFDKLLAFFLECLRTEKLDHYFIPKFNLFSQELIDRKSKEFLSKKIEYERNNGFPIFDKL

As usually defined, the solubility (kinetic) is solubility judged after dilution from a stock solution rather than from solid. What is called IC50 is the midpoint of a concentration-inhibition curve. As for `Cc1nc(N2C[C@@H](CC(=O)Nc3ccc4ncsc4c3)C[C@H]2C(=O)O)c2oc3ccccc3c2n1` [Compound 4, (2S,4R)-4-(2-(benzo[d]thiazol-6-ylamino)-2-oxyethyl)-1-(2-methylbenzofuro[3,2-d]pyrimidin-4-yl)pyrrolidine-2-carboxylic acid], the Papp A→B in the series on MDR1 (P-glycoprotein) was 1 to 5 ×10⁻⁶ cm/s. Besides, the half-life in series [1] was 1.67 to 3.33 h. Also, the solubility (kinetic) in series [2] came out at 488 µM (≈ 238 µg/mL). The IC50 at cGAS [3] (high ATP and GTP (1 mM) to mimic physiological conditions, read-out: IC50 FP Physiological) is below 0.2 µM; on cGAS [3] (standard conditions: 100 μM ATP and GTP, 62.5 nM bp ISD, 60 minute reactions, read-out: IC50 FP Standard), 0.05 to 0.1 µM; at mouse cGAS it was 8.3 µM; in [4] it was above 20 µM. Further, the “Stabilization of cGAS in cells (CETSA)” value at cGAS [5] is reported as “stabilized cGAS”. Moreover, the “Inhibition of RIG-1 signaling” value in the series with RIG-1 signaling is listed as “no detectable inhibition”. For the same compound, in the series on TLR4 pathway, the “Inhibition of TLR4 signaling” value is listed as “no detectable inhibition”. Further, the Cytotoxicity result in series [6] is “no cytotoxicity”. Moreover, in series [7], the “Inhibition of isolated Luc” value is 50%. Moreover, the “Inhibition of isolated SEAP reporter enzyme” value in series [8] is reported as “appreciably”.
Consider `Cc1nc(N2C[C@@H](CC(=O)Nc3ccncc3)C[C@H]2C(=O)O)c2oc3ccccc3c2n1` [Compound A, (2S,4R)-1-(2-methylbenzofuro[3,2-d]pyrimidin-4-yl)-4-(2-oxo-2-(pyridine-4-ylamino)ethyl)pyrrolidine-2-carboxylic acid, reference compound], for which the “MDCK-MDR Permeability A→B” value in series [9] is recorded as “C (C represents <1 cm/ss×10^−6)”. The half-life in series [10] and in series [11] was 1.67 to 3.33 h in each case. Also, the solubility (kinetic) in [2] came out at 542 µM (≈ 234 µg/mL). The compound further displayed an IC50 in [4] above 20 µM.
